“Also recorded” adds a separate entry of the source.
Assays:
[1] = test system: right ventricular trabecular preparation; assay: Adrenergic response to field stimulation or isoproterenol in right ventricular trabecular preparation; assay type: cell-based, dog; details: TAC 10^−4M
Source text: Since myocardial depression in sepsis may also be related to a diminished sympathetic response, the possible role of Lzm-S in contributing to this effect was additionally investigated in the right ventricular preparation as previously described (18). Neural adrenergic stimulation was produced in which the pulse width of the electrical stimulus-trains was increased from 2 ms to 20 ms, keeping other stimulus parameters unchanged. The increase in tension seen with sympathetic nerve stimulation was calculated as a percent increase from basal twitch amplitude. In the protocol used, the adrenergic response was measured before and after 10^−10M, 10^−9M, and 10^−8M Lzm-S were added to the organ bath. The results obtained with Lzm-S were compared with those obtained in time control experiments in which equal volumes of KH were added to the preparation at identical intervals. In a second set of experiments, it was observed whether TAC prevented the decrease in the adrenergic response produced by Lzm-S. Either TAC (10^−4M) or KH was added to an organ bath, and the results obtained with TAC treatment were compared with those obtained without the addition of the inhibitor. […]

[2] = Plasma concentrations of TAC in the previous in vivo experiments; parameters: species or system dog; details: in vivo experiments of Example 2; printed as low 10^−5M range
Protocol: The dose of TAC used in the Pretreatment Study was based on calculations previously obtained from the ventricular trabecular experiments in which it was estimated that a plasma concentration of at least 10^−5M would be required to inhibit lysozyme's depressant activity in vivo (49). Based on the molecular weight of TAC (628 MW), the average size of the dog (20 kg), and the estimated distribution space of approximately 50% of total body weight, the dose chosen was 100 mg (Sigma Corp, Canada, Oakville, Ontario) mixed in 200 ml 5% dextrose in water (D5W) that was given intravenously over 0.5 hr. After this initial dose, a dose of 50 mg mixed in 50 ml D5W was continuously infused over each hour for the remainder of the study. The placebo group received an identical amount of D5W over the course of the study.
In the present study, the inventors examined whether the administration of chitobiose after 3.5 hrs of E. coli sepsis at a relatively high dose could reverse the myocardial depression that develops in this model.

E. coli sepsis in dogs = assay: Chitobiose given after 3.5 h of E. coli sepsis, reversal of myocardial depression; assay type: in vivo, dog; parameters: HR: unit not given here; details: for HR / Pwp: mean±SD
Protocol: The E. coli model used in this study was identical to that previously described. Sepsis was induced by the intravenous infusion of 10^10 colony forming units of live E. coli (designation 0111:B4). The bacteria were suspended in normal saline infusion, which was given over 0.5 h. A constant infusion of approximately 5×10^9 colony forming units/h of E. coli was then maintained for the remainder of the experiment.
During the experiment, the animals (16-21) kg were anesthetized with thiopental sodium (20 mg/kg iv) and constantly infused with sufentanil citrate (1 ug/min) and midazolam (5 ug/kg/min). The rates were adjusted to abolish the palpebral reflex. The animals were placed in the supine position; the trachea was intubated with an endotracheal tube; and the lungs were mechanically ventilated at a tidal volume of 20 ml/kg. The ventilator rate was initially set to maintain blood pH at approximately 7.35 and was changed as necessary over the course of the experiment to maintain blood pH as normal as possible. 100% oxygen was inspired to prevent hypoxemia from contributing to the results, and arterial oxygen tension was maintained greater than 500 mmHg over the course of the study in all experiments.
A thermister tipped catheter was advanced from the jugular vein into the pulmonary artery to measure pulmonary arterial pressure, mean pulmonary capillary wedge pressure (Pwp), right atrial pressure, thermodilution cardiac output (CO, Columbus Instruments, Ohio), and to obtain mixed venous oxygen blood samples. A polyethylene catheter was placed into the femoral artery to measure mean blood pressure (MAP) and to withdraw samples of blood for blood gas analysis. All catheters were connected to transducers (Cobe Laboratories) and were referenced relative to the left atrium. All transducers were connected to a chart recorder (Astro-Med, W Warwick, R.I.). Heart rate (HR) was measured from the recorder tracing. Stroke volume (SV) was calculated as CO/heart rate. Stroke work (SW) was calculated from SV×(MAP-Pwp).
After baseline measurements were obtained, bacteria were infused over a six hour period. Chitobiose was infused at 3.5 hours post sepsis after myocardial depression had already developed and was administered over a 0.5 h period. The dose used was 1000 mg (40 mg/kg) in which the drug was mixed in 100 ml D5W. Based on preliminary calculations, this dose could achieve an approximate plasma concentration of 0.5×10^−4 M. 100 mg/hr of chitobiose (5 mg/kg) mixed in 50 ml of D5W was then infused over the remaining course of the experiment. Measurements were obtained after 3.5 hr of sepsis, after treatment, and 1 and 2 hrs post treatment. Stroke work (SW) was the primary measurement of the myocardial contractility used in this study. Pulmonary capillary wedge pressure (Pwp) was used as an index of preload and was maintained constant between conditions at approximately 10 mmHg. Normal saline solution was given as necessary to maintain Pwp relatively constant.
Statistics included one way analysis of variance for repeated measures and Student Newman Keuls' multiple comparison test. The results are reported mean±1SD.

[3] = post sepsis (3.5 h), before chitobiose

Row | Structure (SMILES) | Effect of pretreatment on the reduction in adrenergic response caused by Lzm-S [1] | Plasma concentrations of TAC [2] | Stroke work post treatment vs 3.5 hrs postsepsis (E. coli sepsis in dogs; 1 and 2 hrs post treatment) | HR (E. coli sepsis in dogs; 1 hr post treatment) | Pwp (E. coli sepsis in dogs; 1 hr post treatment) [mmHg] | HR (E. coli sepsis in dogs; 2 hrs post treatment) | Pwp (E. coli sepsis in dogs; 2 hrs post treatment) [mmHg] | HR (E. coli sepsis in dogs; after treatment) | HR (E. coli sepsis in dogs; baseline) | Pwp (E. coli sepsis in dogs; baseline) [mmHg] | Mean arterial pressure after treatment vs 3.5 hrs postsepsis (E. coli sepsis in dogs; chitobiose 1000 mg over 0.5 h at 3.5 h post sepsis, then 100 mg/hr, 4 dogs) | Myocardial depression already developed in sepsis (E. coli sepsis in dogs; chitobiose administered after 3.5 hr of sepsis) | Cardiac output vs baseline (E. coli sepsis in dogs; dog, in vivo) | Stroke work at the post treatment conditions vs baseline (E. coli sepsis in dogs; dog, in vivo) | Stroke-volume among the treatment conditions (E. coli sepsis in dogs; dog, in vivo) | HR (E. coli sepsis in dogs; [3]) | Pwp (E. coli sepsis in dogs; [3]) [mmHg] | Pwp (E. coli sepsis in dogs; post treatment)
1 | CC(=O)N[C@H]1[C@H](O[C@H]2[C@H](O)[C@@H](NC(C)=O)C(O)O[C@@H]2CO)O[C@H](CO)[C@@H](O[C@@H]2O[C@H](CO)[C@@H](O)[C@H](O)[C@H]2NC(C)=O)[C@@H]1O (stereo partly drawn) [TAC, N,N′,N″ triacetylglucosamine] | prevented the reduction in adrenergic response | ~10^−5 M | – | – | – | – | – | – | – | – | – | – | – | – | – | – | – | –
2 | CC(=O)N[C@H]1[C@H](O[C@H]2[C@H](O)[C@@H](NC(C)=O)C(O)O[C@@H]2CO)O[C@H](CO)[C@@H](O)[C@@H]1O (stereo partly drawn) [chitobiose, N,N′ diacetylglucosamine] | – | – | significant increase in stroke-work at 1 and 2 hrs post treatment; also recorded: increased after chitobiose treatment | 86±20 | 9.5±1.2 | 87±12 | 9.9±0.9 | 91±25 | 48±9 | 10±0.8 | significant increase in mean arterial pressure after treatment; also recorded: increased after treatment with chitobiose | reversal of the myocardial depression observed | higher at the different conditions as compared with baseline | not different from that found at baseline | did not reach statistical significance | 98±24 | 9.6±0.8 | 10.4±0.5

— patent US7402575B2, “Methods of treating inflammation” (priority 2003, dated 2008)
